Source: patent publication US20100061984A1, “COMPOSITIONS AND METHODS FOR MODULATION OF SUPPRESSOR T CELL ACTIVATION” (The Trustees of the University of Pennsylvania, priority 2006, published 2010)
Marks after values point to notes of the source that are not given here.

Experiments:
autoimmune models = test: several autoimmune models (NOD, EAE, CIA); assay type: in vivo; conditions: MOG-induced EAE and CIA mouse models
Text: Studies of the rational inactivation of HDACs have been initiated with the intent of modifying FOXP3 acetylation. […] This treatment leads to increased FoxP3^+ suppressor cell levels and function. The models studied include the Nonobese Diabetic Mice (NOD) model, the myelin oligodendrocyte glycoprotein-induced experimental autoimmune encephalomyelitis (EAE) model, and the collagen-induced arthritis (CIA) mouse model.

FOXP3+CD25+ cells = test: flow cytometry of splenocytes from collagen induced arthritic mice for CD4, CD25 and FOXP3; assay type: in vivo
Protocol: Splenocytes from collagen induced arthritic mice treated with VPA (no disease evident) or PBS (disease evident) were stained for cell-surface CD25 and intracellular FOXP3. The CD25+FOXP3+cell subpopulation was gated, and FOXP3 level was analyzed.
(§1) HDAC inhibitor treatment in collagen induced arthritis: HDAC inhibitor VPA was tested in the collagen induced arthritis (CIA) disease model of rheumatoid arthritis. CD4+ T cells as well as B cells are responsible for disease manifestation within the joints and CD25+ Treg play a protective role in disease development. After disease induction with type II collagen, mice were administered VPA (400 mg/kg) or PBS ip daily for 5 weeks. They were scored for severity of disease twice per week. […] Splenocytes from collagen induced arthritic mice that were treated with VPA (no disease evident) or PBS (disease evident) were analyzed for expression of CD4, CD25 and FOXP3 by flow cytometry. […] Additionally, the intracellular levels of FOXP3 protein were elevated in the VPA treated mice compared to PBS mice (FIG. 10). […] In proposed studies VPA treated CD25+ cells will be compared to PBS treated CD25+ cells for increased functional regulatory activity in vitro. HDAC inhibitor VPA is able to modify disease progression in the CIA model of rheumatoid arthritis.

[1] = tested on: Experimental Autoimmune Encephalomyelitis; test: experimental autoimmune encephalomyelitis model (MOG38-50 peptide); assay type: in vivo; conditions: Table 1, 7-10 mice per group, PBS 100%
Text: (§2) Experiments were done to test the effect of valproic acid (VPA) on autoimmune disease models. Three models were used: a collagen induced arthritis (CIA) model; a non-obese diabetic mouse model; and an experimental autoimmune encephalomyelitis model. Collagen used in the CIA model was collagen from chicken sternal cartilage powder, Type II, from Sigma Cat#C9301. The peptide that was used in EAE experiments was Mouse MOG38-50 peptide ([…]-SEQ ID NO:1), which was synthesized using>F-moc solid phase methods and purified through HPLC by Invitrogen Life Technologies. For each model tested 7-10 mice were used per group. Results obtained with VPA were compared to those using the negative control phosphate buffered saline.

[2] = tested on: collagen induced arthritis (CIA); test: collagen induced arthritis (CIA) disease model of rheumatoid arthritis; assay type: in vivo, mice
Protocol: as §1, §2

Non-obese diabetic mouse = test: non-obese diabetic mouse model; assay type: in vivo; conditions: Table 1, 7-10 mice per group, PBS 50%
Text: as §2

SMILES	FoxP3+ suppressor cell levels and function (autoimmune models)	clinical effects in autoimmune models (autoimmune models)	intracellular levels of FOXP3 protein compared to PBS mice (FOXP3+CD25+ cells; CD25+FOXP3+ gated splenocytes from CIA mice (FIG. 10))	increase in the percentage of FOXP3+CD25+ cells, VPA treated versus PBS treated splenocytes (FOXP3+CD25+ cells; splenocytes from CIA mice, flow cytometry)	Incidence of Disease [1]	Incidence of Disease ([2]; Collagen Induced Arthritis, Table 1, 7-10 mice per group, PBS 100%)	mice showing any disease at the end of the 5 week study ([2]; VPA 400 mg/kg ip daily for 5 weeks after induction with type II collagen, PBS group 100%)	disease severity compared to PBS treated ([2]; VPA 400 mg/kg ip daily for 5 weeks, scored twice per week)	Incidence of Disease (Non-obese diabetic mouse)
CC(/C=C/C(=O)NO)=C\[C@@H](C)C(=O)c1ccc(N(C)C)cc1 [TSA, Trichostatin A]	increased	significant clinical effects							
CCCC(CCC)C(=O)O [VPA, valproic acid]	increased	significant clinical effects	elevated	1.63 fold	57%*	29%	25%	greatly reduced	20%
